Key:
Details in all cases: incubation time: 72 h
BT-474 [1] = assay: normalised response (% of control), CellTox Green; higher = less cell death (100 = DMSO, 0 = benzethonium chloride kill control)
How it was run: (§1)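 Compound was dispensed into 384-well plates at 5 concentrations in 10-fold steps spanning a 10,000-fold range specific to that compound. Breast cancer cell lines were added as 20 µl suspension and left for 72 h before CellTox Green fluorescence (485/520 nm) and then CellTiter-Glo luminescence, read after 10 min at room temperature. Each reported value is the normalised signal at one concentration, with 0.1 % DMSO set at 100 and a positive kill control at 0 on each plate.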

BT-549 [2] = assay: as above
How it was run: as §1

CAL-120 [3] = assay: as above
How it was run: as §1

CAL-148 [4] = assay: as above
How it was run: as §1

CAL-51 [5] = assay: as above
How it was run: as §1

CAL-85-1 [6] = assay: as above
How it was run: as §1

DU-4475 [7] = assay: as above
How it was run: as §1

HCC1143 [8] = assay: as above
How it was run: as §1

HCC1599 [9] = assay: as above
How it was run: as §1

HCC1937 [10] = assay: as above
How it was run: as §1

HDQ-P1 [11] = assay: as above
How it was run: as §1

Hs578T [12] = assay: as above
How it was run: as §1

MCF-10A [13] = assay: as above
How it was run: as §1

MDA-MB-231 [14] = assay: as above
How it was run: as §1

MDA-MB-436 [15] = assay: as above
How it was run: as §1

MDA-MB-453 [16] = assay: as above
How it was run: as §1

MDA-MB-468 [17] = assay: as above
How it was run: as §1

MFM-223 [18] = assay: as above
How it was run: as §1

BT-474 [19] = assay: normalised response (% of control), CellTiter-Glo; higher = more viable cells (100 = DMSO, 0 = benzethonium chloride kill control)
How it was run: as §1

BT-549 [20] = assay: as above
How it was run: as §1

CAL-120 [21] = assay: as above
How it was run: as §1

CAL-148 [22] = assay: as above
How it was run: as §1

CAL-51 [23] = assay: as above
How it was run: as §1

CAL-85-1 [24] = assay: as above
How it was run: as §1

DU-4475 [25] = assay: as above
How it was run: as §1

HCC1143 [26] = assay: as above
How it was run: as §1

HCC1599 [27] = assay: as above
How it was run: as §1

HCC1937 [28] = assay: as above
How it was run: as §1

HDQ-P1 [29] = assay: as above
How it was run: as §1

Hs578T [30] = assay: as above
How it was run: as §1

MCF-10A [31] = assay: as above
How it was run: as §1

MDA-MB-231 [32] = assay: as above
How it was run: as §1

MDA-MB-436 [33] = assay: as above
How it was run: as §1

MDA-MB-453 [34] = assay: as above
How it was run: as §1

MDA-MB-468 [35] = assay: as above
How it was run: as §1

MFM-223 [36] = assay: as above
How it was run: as §1

SK-BR-3 = assay: as above
How it was run: as §1

Row | SMILES | normalised response (BT-474 [1]) | normalised response (BT-549 [2]) | normalised response (CAL-120 [3]) | normalised response (CAL-148 [4]) | normalised response (CAL-51 [5]) | normalised response (CAL-85-1 [6]) | normalised response (DU-4475 [7]) | normalised response (HCC1143 [8]) | normalised response (HCC1599 [9]) | normalised response (HCC1937 [10]) | normalised response (HDQ-P1 [11]) | normalised response (Hs578T [12]) | normalised response (MCF-10A [13]) | normalised response (MDA-MB-231 [14]) | normalised response (MDA-MB-436 [15]) | normalised response (MDA-MB-453 [16]) | normalised response (MDA-MB-468 [17]) | normalised response (MFM-223 [18]) | normalised response (BT-474 [19]) | normalised response (BT-549 [20]) | normalised response (CAL-120 [21]) | normalised response (CAL-148 [22]) | normalised response (CAL-51 [23]) | normalised response (CAL-85-1 [24]) | normalised response (DU-4475 [25]) | normalised response (HCC1143 [26]) | normalised response (HCC1599 [27]) | normalised response (HCC1937 [28]) | normalised response (HDQ-P1 [29]) | normalised response (Hs578T [30]) | normalised response (MCF-10A [31]) | normalised response (MDA-MB-231 [32]) | normalised response (MDA-MB-436 [33]) | normalised response (MDA-MB-453 [34]) | normalised response (MDA-MB-468 [35]) | normalised response (MFM-223 [36]) | normalised response (SK-BR-3)
1 | CC(C)NC[C@@H](C(=O)N1CCN(c2ncnc3c2[C@H](C)C[C@H]3O)CC1)c1ccc(Cl)cc1 [GDC-0068] (100 nM) | 96.9% | 98.9% | 104% | 82.4% | 106% | 108% | 102% | 93.9% | 94.8% | 104% | 87% | 97.8% | 106% | 97.8% | 85% | 107% | 125% | 102% | 102% | 94.2% | 104% | 62.8% | 80% | 98.3% | 98.8% | 100% | 93.9% | 90.9% | 89.2% | 102% | 111% | 104% | 97.3% | 84.2% | 84% | 68.4% | 95.1%
2 | CCCc1cc(C)[nH]c(=O)c1CNC(=O)c1cc(-c2ccnc(N3CCN(C)CC3)c2)cc2c1cnn2C(C)C [GSK343] (100 nM) | 100% | 98.5% | 95.3% | 101% | 62.8% | 106% | 96% | 91.9% | 96.3% | 87.8% | 105% | 51% | 85.8% | 100% | 88.6% | 102% | 161% | 99.6% | 94.8% | 101% | 94.6% | 90.1% | 67.6% | 91.9% | 92.5% | 93.2% | 82.2% | 94.9% | 96.5% | 95.5% | 92.7% | 97.2% | 103% | 90% | 84.6% | 95.5% | 88.1%
3 | NC(=O)NO [Hydroxyurea] (1000 nM) | 101% | 105% | 101% | 78.8% | 78.6% | 115% | 102% | 67.2% | 99.6% | 109% | 99.4% | 101% | 108% | 111% | 101% | 96.4% | 103% | 89.5% | 92.1% | 105% | 102% | 104% | 61.3% | 110% | 99.6% | 105% | 97.1% | 97.6% | 95.2% | 101% | 99.2% | 100% | 98.5% | 109% | 102% | 105% | 103%
4 | COc1cc2c(cc1-c1c(C)noc1C)ncc1[nH]c(=O)n([C@H](C)c3ccccn3)c12 [I-BET151] (100 nM) | 101% | 93.2% | 97.4% | 102% | 112% | 107% | 103% | 91.9% | 99.1% | 102% | 89.7% | 108% | 89.9% | 78.7% | 64.7% | 98.3% | 54% | 103% | 89.6% | 98.8% | 99.9% | 110% | 104% | 104% | 94.8% | 117% | 100% | 98.4% | 96% | 102% | 93.8% | 99.6% | 96.4% | 85.7% | 98.9% | 103% | 105%
5 | CC(C)n1nc(-c2ccc3oc(N)nc3c2)c2c(N)ncnc21 [INK128] (10 nM) | 76.1% | 83.9% | 100% | 96.6% | 99.6% | 99.9% | 96.8% | 60.6% | 95% | 91.2% | 78.1% | 108% | 108% | 99.5% | 94.7% | 99.3% | 104% | 99.9% | 78.9% | 74.7% | 82.4% | 81.7% | 76.8% | 81.4% | 86.8% | 85.8% | 100% | 82.9% | 75% | 85% | 89.1% | 81.8% | 79.1% | 73.8% | 81.2% | 70.6% | 55.6%
6 | O=C(O)CC[C@H]1CC[C@@](c2cc(F)ccc2F)(S(=O)(=O)c2ccc(Cl)cc2)CC1 [MK-0752] (10 nM) | 104% | 92.4% | 107% | 101% | 103% | 102% | 108% | 120% | 122% | 125% | 105% | 56.9% | 109% | 122% | 99.9% | 107% | 108% | 85.8% | 105% | 93.8% | 106% | 108% | 101% | 97.2% | 102% | 105% | 91.8% | 98.8% | 99.3% | 106% | 105% | 109% | 99.7% | 114% | 96.1% | 106% | 105%
7 | CO[C@H](C(=O)[C@@H](O)[C@@H](C)O)[C@@H]1Cc2cc3cc(O[C@H]4C[C@@H](O[C@@H]5C[C@@H](O)[C@H](O)[C@@H](C)O5)[C@H](O)[C@@H](C)O4)c(C)c(O)c3c(O)c2C(=O)[C@H]1O[C@H]1C[C@@H](O[C@@H]2C[C@@H](O)[C@@H](O[C@@H]3C[C@](C)(O)[C@H](O)[C@@H](C)O3)[C@@H](C)O2)[C@H](O)[C@@H](C)O1 [Plicamycin] (100 nM) | 99.4% | 98.7% | 102% | 107% | 85.5% | 99% | 102% | 101% | 106% | 119% | 94.3% | 86% | 93.4% | 109% | 96.8% | 105% | 131% | 100% | 100% | 103% | 103% | 112% | 66.4% | 100% | 105% | 104% | 99.4% | 98% | 99.5% | 104% | 108% | 104% | 103% | 114% | 105% | 103% | 102%
8 | CC/C(=C(\c1ccccc1)c1ccc(OCCN(C)C)cc1)c1ccccc1 [Tamoxifen] (100 nM) | 100% | 99.3% | 103% | 106% | 115% | 105% | 105% | 113% | 103% | 91.9% | 87.8% | 97.7% | 106% | 91.3% | 74.1% | 100% | 71.4% | 103% | 97.9% | 99.2% | 110% | 110% | 91.5% | 99.9% | 105% | 108% | 101% | 100% | 105% | 105% | 107% | 107% | 99.1% | 102% | 98% | 103% | 99.4%
